Test results taken from PMC4872784 (Oncotarget, 2016).
Where two headings read alike, the source gives them in different places.

What was measured:
HL-60 cells [1] = test: clonogenicity (colony formation in semi-solid medium); assay type: cell-based, human; conditions: 24h pretreatment
Description: (§1) page 2: Supplementary Figure S3: […] hours. Two B-ALL (KOPN8, SEM) and two AML (MOLM14, THP-1) cell lines were treated with the indicated concentrations of ART- 838 or AS for 24–96 h, then viability determined as in Figure 1A. Data are represented as mean +/– SD. Supplementary Figure S4: […] Colony-forming assays were performed as in Figure 1B in A. K562 and B. HL-60 AML cell lines. Each experiment was performed once in triplicate. Data are represented as mean +/– SD.

K562 cells [2] = test: as above; assay type: cell-based, human; conditions: 24h pretreatment
Description: as §1

MOLM14 or KOPN8 cells = test: drug combinations, alamarBlue 48h, combination indices; conditions: for effect of addition on cytotoxicity of ARA, DOX, ETO, MID, LES, SOR: equipotency ratio based on IC50s, 48h
Description: Supplementary Figure S10: Drug combinations against MOLM14. MOLM14 cells were treated with a range of concentrations
experiment was performed three times in triplicate, and error bars represent the SEM.
Combination indices (CI) were computed for each drug combination using CompuSyn software, based on the Median Effect
Principle and the CI theorem of Chou-Talalay, wherein CI = 1 indicates additivity, CI < 1 synergism, and CI > 1 antagonism. Data are
Supplementary Figure S11: Drug combinations against KOPN8. KOPN8 cells were treated with a range of concentrations
Each experiment was performed at least three times in triplicate, and error bars represent the SEM.

RS4;11 cells = test: alamarBlue cytotoxicity assay, 48h; assay type: cell-based, human; conditions: RS4;11 (B-ALL), RPMI + 10% FBS
Description: (§2) Following subtraction of background fluorescence from all wells, fluorescence of drug-treated cells was normalized to that of vehicle (<0.5% DMSO)-treated cells to determine the effect of each drug concentration on viability. Each cell line was tested in triplicate and in at least three independent experiments. IC50 (concentration that inhibits cell growth by 50%) values were calculated using CompuSyn software (ComboSyn, Paramus, NJ). […] In addition several cell lines were initially cultured and tested in alternative media (Supplementary Table S2). […] Colony counts were normalized to vehicle-treated controls (100%). Three independent experiments were performed.
(§3) In most experiments, cytotoxicity was assessed using alamarBlue assays (Life Technologies, Grand Island, NY). In experiments using NAC and DFO, which can interfere with alamarBlue assay performance, Trypan Blue dye exclusion was used instead. […]
(§4) experiments performed in triplicate. […] Age refers to age […]
(§5) at the time of leukemia diagnosis of the patient from whom the cell line was derived. (–) Indicates information unavailable.
(§6) *Cell lines with FLT3/ITD mutations.
(§7) *The MV-4–11 cell line was derived from a patient with a biphenotypic B-myelomonocytic leukemia; K562 was derived […]
(§8) 1A. p53 status was obtained from http://cancer.sanger.ac.uk/cell_lines/cbrowse/all and http://p53.free.fr/Database/Cancer_ cell_lines/Leukemia_cancer. html. WT: wild type. Mut: mutant. SM: single mutation. DM: double mutation. MM: multiple mutations. Fs: Frameshift mutation. Null: protein expression undetectable.

U937 cells = test: alamarBlue cytotoxicity assay, 48h; assay type: cell-based, human; conditions: RPMI + 10% FBS
Description: as §2, §3, §4, §5, §6, §7, §8

THP-1 cells = test: alamarBlue cytotoxicity assay, 48h; assay type: cell-based, human
Description: as §2, §3, §4, §5, §6, §7, §8

KG-1a cells = test: alamarBlue cytotoxicity assay, 48h; assay type: cell-based, human; conditions: KG-1a (AML), RPMI + 10% FBS
Description: as §2, §3, §4, §5, §6, §7, §8

RCH-ACV cells = test: alamarBlue cytotoxicity assay, 48h; assay type: cell-based, human; conditions: RCH-ACV (B-ALL), RPMI + 10% FBS
Description: as §2, §3, §4, §5, §6, §7, §8

SUPB15 cells = test: alamarBlue cytotoxicity assay, 48h; assay type: cell-based, human
Description: as §2, §3, §4, §5, §6, §7, §8

OCI-AML3 cells = test: alamarBlue cytotoxicity assay, 48h; assay type: cell-based, human
Description: as §2, §3, §4, §5, §6, §7, §8

Jurkat cells = test: alamarBlue cytotoxicity assay, 48h; assay type: cell-based, human; conditions: Jurkat (T-ALL), RPMI + 10% FBS
Description: as §2, §3, §4, §5, §6, §7, §8

CCRF-CEM cells = test: alamarBlue cytotoxicity assay, 48h; assay type: cell-based, human; conditions: CCRF-CEM (T-ALL), RPMI + 10% FBS
Description: as §2, §3, §4, §5, §6, §7, §8

ML-2 cells = test: alamarBlue cytotoxicity assay, 48h; assay type: cell-based, human; conditions: ML-2 (AML), RPMI + 10% FBS
Description: as §2, §3, §4, §5, §6, §7, §8

NB-4 cells = test: alamarBlue cytotoxicity assay, 48h; assay type: cell-based, human; conditions: NB-4 (AML), RPMI + 10% FBS
Description: as §2, §3, §4, §5, §6, §7, §8

HL-60 cells [3] = test: alamarBlue cytotoxicity assay, 48h; assay type: cell-based, human; conditions: HL-60 (AML), RPMI + 10% FBS
Description: as §2, §3, §4, §5, §6, §7, §8

MV-4-11 cells = test: alamarBlue cytotoxicity assay, 48h; assay type: cell-based, human; conditions: RPMI + 10% FBS
Description: as §2, §3, §4, §5, §6, §7, §8

MOLT-16 cells = test: alamarBlue cytotoxicity assay, 48h; assay type: cell-based, human; conditions: MOLT-16 (T-ALL), RPMI + 10% FBS
Description: as §2, §3, §4, §5, §6, §7, §8

SEM cells = test: alamarBlue cytotoxicity assay, 48h; assay type: cell-based, human
Description: as §2, §3, §4, §5, §6, §7, §8

NALM-6 cells = test: alamarBlue cytotoxicity assay, 48h; assay type: cell-based, human; conditions: NALM-6 (B-ALL), RPMI + 10% FBS
Description: as §2, §3, §4, §5, §6, §7, §8

REH cells = test: alamarBlue cytotoxicity assay, 48h; assay type: cell-based, human
Description: as §2, §3, §4, §5, §6, §7, §8

Kasumi-2 cells = test: alamarBlue cytotoxicity assay, 48h; assay type: cell-based, human; conditions: Kasumi-2 (B-ALL), RPMI + 10% FBS
Description: as §2, §3, §4, §5, §6, §7, §8

K562 cells [4] = test: alamarBlue cytotoxicity assay, 48h; assay type: cell-based, human; conditions: K562 (CML), RPMI + 10% FBS
Description: as §2, §3, §4, §5, §6, §7, §8

## C[C@@H]1CCC2[C@@H](C)[C@@H](CC(COP(=O)(Oc3ccccc3)Oc3ccccc3)C[C@H]3O[C@@H]4O[C@@]5(C)CCC6[C@H](C)CCC([C@H]3C)[C@]64OO5)O[C@@H]3O[C@@]4(C)CCC1[C@@]23OO4 (stereo partly drawn) [ART-838, artemisinin-derived trioxane diphenylphosphate dimer 838]
HL-60 cells [1]
  clonogenicity: reduced clonogenicity
K562 cells [2]
  clonogenicity: reduced clonogenicity
MOLM14 or KOPN8 cells; combination indices
  interaction with kinase inhibitors MID, LES, SOR: combined synergistically with all three kinase inhibitors
MOLM14 or KOPN8 cells
  effect of addition on cytotoxicity of ARA, DOX, ETO, MID, LES, SOR: enhanced the cytotoxicity of all six tested drugs
RS4;11 cells
  IC50: 62 ± 23 nM
U937 cells; U937 (AML)
  IC50: 10 ± 1 nM
THP-1 cells; THP-1 (AML), 48h, RPMI + 10% FBS, read-out: IC50
  IC50: 38 ± 9 nM
THP-1 cells; THP-1, RPMI + 10% FBS + 50 μM β-mercaptoethanol vs RPMI+10% FBS
  -Fold Difference in IC50 between media: 2.5
THP-1 cells; THP-1, original medium RPMI + 10% FBS + 50 μM β-mercaptoethanol, read-out: IC50 in original medium
  IC50: 95 nM
KG-1a cells
  IC50: 547 ± 147 nM
RCH-ACV cells
  IC50: 36 ± 12 nM
SUPB15 cells; SUPB15 (B-ALL), 48h, RPMI + 10% FBS, read-out: IC50
  IC50: 26 ± 3 nM
SUPB15 cells; SUPB15, RPMI + 20% FBS vs RPMI+10% FBS
  -Fold Difference in IC50 between media: 3.0
SUPB15 cells; SUPB15, original medium RPMI + 20% FBS, read-out: IC50 in original medium
  IC50: 77 nM
OCI-AML3 cells; OCI-AML3 (AML), 48h, RPMI + 10% FBS, read-out: IC50
  IC50: 168 ± 41 nM
OCI-AML3 cells; OCI-AML3, RPMI + 20% FBS vs RPMI+10% FBS
  -Fold Difference in IC50 between media: 1.7
OCI-AML3 cells; OCI-AML3, original medium RPMI + 20% FBS, read-out: IC50 in original medium
  IC50: 287 nM
Jurkat cells
  IC50: 255 ± 155 nM
CCRF-CEM cells
  IC50: 483 ± 195 nM
ML-2 cells
  IC50: 21 ± 11 nM
NB-4 cells
  IC50: 26 ± 7 nM
HL-60 cells [3]
  IC50: 107 ± 45 nM
MV-4-11 cells; MV-4-11 (AML/B-ALL)
  IC50: 25 ± 5 nM
MOLT-16 cells
  IC50: 10 ± 2 nM
SEM cells; SEM (B-ALL), 48h, RPMI + 10% FBS, read-out: IC50
  IC50: 29 ± 6 nM
SEM cells; SEM, DMEM + 10% FBS vs RPMI+10% FBS
  -Fold Difference in IC50 between media: 9.2
SEM cells; SEM, original medium DMEM + 10% FBS, read-out: IC50 in original medium
  IC50: 268 nM
NALM-6 cells
  IC50: 16 ± 5 nM
REH cells; REH (B-ALL), 48h, RPMI + 10% FBS, read-out: IC50
  IC50: 95 ± 40 nM
REH cells; REH, RPMI + 20% FBS vs RPMI+10% FBS
  -Fold Difference in IC50 between media: 1.3
REH cells; REH, original medium RPMI + 20% FBS, read-out: IC50 in original medium
  IC50: 123 nM
REH cells; read-out: IC50 in RPMI+10% FBS, REH, Table S2
  IC50: 95 nM
Kasumi-2 cells
  IC50: 26 ± 4 nM
K562 cells [4]
  IC50: 94 ± 12 nM

## C[C@H]1[C@H](OC(=O)CCC(=O)O)O[C@@H]2O[C@@]3(C)CC[C@H]4[C@H](C)CC[C@@H]1[C@@]24OO3 [AS, artesunate]
HL-60 cells [1]
  clonogenicity: reduced clonogenicity
K562 cells [2]
  clonogenicity: reduced clonogenicity
MOLM14 or KOPN8 cells; combination indices
  interaction with SOR: additive effects
MOLM14 or KOPN8 cells
  effect of addition on cytotoxicity of ARA, DOX, ETO, MID, LES, SOR: enhanced the cytotoxicity of all six tested drugs
RS4;11 cells; Homo sapiens
  IC50: 5420 ± 1890 nM
U937 cells; Homo sapiens, U-937, U937 (AML)
  IC50: 1060 ± 170 nM
THP-1 cells; Homo sapiens, THP-1 (AML), 48h, RPMI + 10% FBS, read-out: IC50
  IC50: 2200 ± 480 nM
THP-1 cells; Homo sapiens, THP-1, original medium RPMI + 10% FBS + 50 μM β-mercaptoethanol, read-out: IC50 in original medium
  IC50: 11100 nM
KG-1a cells; Homo sapiens
  IC50: 6260 ± 300 nM
RCH-ACV cells; Homo sapiens
  IC50: 3200 ± 540 nM
SUPB15 cells; Homo sapiens, SUP-B15, SUPB15 (B-ALL), 48h, RPMI + 10% FBS, read-out: IC50
  IC50: 7820 ± 1220 nM
SUPB15 cells; Homo sapiens, SUP-B15, SUPB15, original medium RPMI + 20% FBS, read-out: IC50 in original medium
  IC50: 14300 nM
OCI-AML3 cells; Homo sapiens, OCI-AML-3, OCI-AML3 (AML), 48h, RPMI + 10% FBS, read-out: IC50
  IC50: 1810 ± 200 nM
OCI-AML3 cells; Homo sapiens, OCI-AML-3, OCI-AML3, original medium RPMI + 20% FBS, read-out: IC50 in original medium
  IC50: 3560 nM
Jurkat cells; Homo sapiens
  IC50: 4330 ± 1180 nM
CCRF-CEM cells; Homo sapiens
  IC50: 7340 ± 1240 nM
ML-2 cells; Homo sapiens
  IC50: 1460 ± 210 nM
NB-4 cells; Homo sapiens
  IC50: 947 ± 141 nM
HL-60 cells [3]; Homo sapiens
  IC50: 3000 ± 600 nM
MV-4-11 cells; Homo sapiens, MV4-11, MV-4-11 (AML/B-ALL)
  IC50: 796 ± 96 nM
MOLT-16 cells; Homo sapiens
  IC50: 1630 ± 70 nM
SEM cells; Homo sapiens, SEM (B-ALL), 48h, RPMI + 10% FBS, read-out: IC50
  IC50: 4080 ± 1180 nM
SEM cells; Homo sapiens, SEM, original medium DMEM + 10% FBS, read-out: IC50 in original medium
  IC50: 18300 nM
NALM-6 cells; Homo sapiens
  IC50: 5190 ± 430 nM
REH cells; Homo sapiens, read-out: IC50 in RPMI+10% FBS, REH, Table S2
  IC50: 10300 nM
REH cells; Homo sapiens, REH (B-ALL), 48h, RPMI + 10% FBS, read-out: IC50
  IC50: 10300 ± 3000 nM
REH cells; Homo sapiens, REH, original medium RPMI + 20% FBS, read-out: IC50 in original medium
  IC50: 15400 nM
Kasumi-2 cells; Homo sapiens
  IC50: 6650 ± 340 nM
K562 cells [4]; Homo sapiens
  IC50: 4750 ± 850 nM
